Results as given in patent US20250090629A1, “ALLEVIATING DRUG NEPHROTOXICITY” (The Trustees of Indiana University, priority 2021, published 2025).

Tests used:
[1] = system: uninephrectomy chronic kidney disease model in Munich Wister Fromter rats; experiment: Gentamicin induced nephrotoxicity in uninephrectomy chronic kidney disease rat model, with or without RAP; details: for Serum Cr: daily gentamicin 100 mg/kg intraperitoneal with RAP 40 mg/kg intravenous, p<0.01 vs without RAP; for Urinary protein: CKD pretreatment baseline 221±40
Procedure: Rats with a Chronic Kidney Disease (CKD) background were given either saline or 40 mg/kg RAP. […] Serum creatinine, an indicator of renal function, was measured in both rat populations at day 0, 3, 4, 5, and 6.

[2] = system: fluid phase and Megalin mediated clathrin mediated endocytosis in S1 and non-S1 proximal tubule segments; experiment: Intra-vital 2-photon quantification of proximal tubule uptake of fluorescent endocytic markers after RAP or vehicle; format: in vivo, rat
Procedure: Rats were given either RAP or saline vehicle followed by a bolus containing a fluid phase endocytic marker (10,000 MW Cascade Blue Dextra, CB-dex) and a receptor mediated uptake marker (Texas Red Rat Serum Albumin, Rat Albumin). […] The results of this experiment are illustrated in FIG. 3. […] Ten minutes later, a bolus of Texas Red rat serum albumin (TR-RSA) and 10 kDa Cascade Blue dextran was given. […] Images collected from these studies at approximately 15, 30, and 60 minutes post initial infusion were quantified for TR-RSA and 10 kDa dextran uptake in either vehicle or RAP treated rats, in both S1 and non-S1 proximal tubule segments. Values were reported as normalized fluorescence, with the values normalized to the highest average value in the study group. […] The differences between vehicle and RAP treated were significant at all three time points studied and in both the S1 and non-S1 proximal tubule segments. […] The lower glomerular sieving coefficient of the RSA results in less RSA filtration and this a slower, protracted uptake that appears linear over time, with the S1 segment having the greatest accumulation.

[3] = system: fluid phase and Megalin mediated clathrin mediated endocytosis in S1 and non-S1 proximal tubule segments; experiment: as above; format: in vivo, rat; remark: listed apart in the source
[4] = RAP vs saline vehicle, 15', 30', 60' post bolus, S1 and non-S1 segments, FIG. 3
[5] = S1 segment, 60 minutes post initial bolus infusion, RAP 40 mg/Kg, FIG. 4B
[6] = normal rats, over 60 minutes, RAP 40 mg/kg intravenous

| Substance | Serum creatinine (indicator of renal function), change over time ([1]; CKD rats, RAP 40 mg/kg plus gentamicin 100 mg/kg intraperitoneal daily for five days, day 0, 3, 4, 5, 6, FIG. 1) | Serum Cr ([1]; day 5) | Serum Cr ([1]; day 6) | 24-hour creatinine clearance ([1]; gentamicin with RAP, CKD pretreatment baseline 0.91=0.22 ml/min) | Urinary protein ([1]; gentamicin with RAP) | 10,000 MW Cascade Blue Dextran (CB-dex) proximal tubule uptake and accumulation [2, 4] | Texas Red Rat Serum Albumin proximal tubule uptake and accumulation [2, 4] | 10 kDa dextran accumulation in single plane images [2, 5] | TR-RSA uptake in single plane images [2, 5] | Reduction of 10 kDa Cascade Blue dextran uptake vs vehicle ([2]; S1 segment, RAP 40 mg/Kg, FIG. 4C) | RSA uptake (normalized fluorescence) compared to vehicle treated rats ([2]; about 15, 30 and 60 minutes, both S1 and non-S1 proximal tubule segments, FIG. 4E, 4F) | Reduction of 10 kDa Cascade Blue dextran uptake vs vehicle ([2]; non-S1 proximal tubule segments, RAP 40 mg/Kg, FIG. 4D) | Reversibility of the reduction of S1 proximal tubule uptake ([2]; normal rats) | Reduction of S1 proximal tubule albumin uptake [2, 6] | Reduction of S1 proximal tubule dextran uptake [2, 6] | Nature of the inhibition of endocytosis ([2]; without causing lasting effects on kidney function) | Texas Red Gentamicin accumulation (average fluorescence intensity) ([3]; RAP 40 mg/kg vs saline vehicle, then single bolus of Texas Red Gentamicin, S1 and non-S1 proximal tubule segments, FIG. 2) | Reduction of S1 proximal tubule gentamicin uptake [3, 6] | Urinary protein ([1]; gentamicin without RAP) |
| --- | --- | --- | --- | --- | --- | --- | --- | --- | --- | --- | --- | --- | --- | --- | --- | --- | --- | --- | --- |
| RAP: 39 kD protein, molecular chaperone for LDL receptor-related proteins such as Megalin; endocytosis inhibitor; SEQ ID NO 1-3 (human, rat, mouse) | did not exhibit the same increase in serum creatinine | 1.4 ± 0.5 mg/dL | 1.5 ± 0.5 mg/dL | 0.49 ± 0.16 mL/min | 488 mg/ml/100 μm wt | reduction | reduction | only faint accumulation | virtually no uptake | over 5 fold | significantly reduced | 2 fold | rapid fully reversible | 80% | 67% | temporary and reversible | Decreased | 62% |  |
| gentamicin [reference compound] |  |  |  |  |  |  |  |  |  |  |  |  |  |  |  |  |  |  | 2,512 mg/ml/100 μm wt |
